Data published in patent publication US9113629B2, “4-amino-6-(4-substituted-phenyl)-picolinates and 6-amino-2-(4-substituted-phenyl)-pyrimidine-4-carboxylates and their use as herbicides” (DOW AGROSCIENCES LLC, priority 2013, dated 2015).

Key:
Assay in all cases: Post-emergent Test III, herbicidal activity in wheat and barley
Assay type in all cases: in vivo
[1] = system: GALAP: cleavers (Galium aparine); details: Table 8, 21 d; for pest or weed control at 35 g/ha / pest or weed control at 70 g/ha: Galium aparine, post-emergence, 504 h, post-emergent, read-out: Visual Growth Reduction (%) 21 Days After Application GALAP; for pest or weed control at 35 g/ha: 35 g ai/ha; for pest or weed control at 70 g/ha: 70 g ai/ha; for GR50 GALAP: dose for 50 percent growth reduction; for GR50 GALAP / GR80 GALAP: probit analysis; for GR80 GALAP: dose for 80 percent growth reduction
In short: (§1)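 GR20, GR50, GR80 and GR90 come from probit analysis of visual injury scores (0 = none, 100 = complete kill) taken 21 d after treatment. Foliar application was by track sprayer delivering 187 L/ha at five rates, from high down to 1/16×, onto greenhouse plants at the 2–3 leaf stage, with solvent-blank controls.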

[2] = system: STEME: common chickweed (Stellaria media); details: for pest or weed control at 35 g/ha / pest or weed control at 70 g/ha / pest or weed control at 140 g/ha: Stellaria media, post-emergence, 504 h, read-out: Visual Growth Reduction (%) 21 Days After Application STEME; for pest or weed control at 35 g/ha: 35 g ai/ha; for pest or weed control at 70 g/ha: 70 g ai/ha; for pest or weed control at 140 g/ha: 140 g ai/ha; for GR50 STEME / GR80 STEME: probit analysis, 21 days after application; for GR50 STEME: dose for growth reduction of 50 percent; for GR80 STEME: dose for growth reduction of 80 percent
In short: as §1

[3] = system: PHAMI: lesser canary grass (Phalaris minor); details: for pest or weed control at 35 g/ha / pest or weed control at 70 g/ha / pest or weed control at 140 g/ha: Phalaris minor, post-emergence, 504 h, read-out: Visual Growth Reduction (%) 21 Days After Application PHAMI; for pest or weed control at 35 g/ha: 35 g ai/ha; for pest or weed control at 70 g/ha: 70 g ai/ha; for pest or weed control at 140 g/ha: 140 g ai/ha; for GR50 PHAMI / GR80 PHAMI: probit analysis, 21 days after application; for GR50 PHAMI: dose for growth reduction of 50 percent; for GR80 PHAMI: dose for growth reduction of 80 percent
In short: as §1

## Nc1cc(-c2ccc(Br)c(F)c2)nc(C(=O)O)c1Cl [Compound 110, 4-Amino-6-(4-bromo-3-fluorophenyl)-3-chloropicolinic acid]
[1]
  pest or weed control at 35 g/ha: 95 to 100%
  pest or weed control at 70 g/ha: 95 to 100%
  GR50 GALAP: 1 g ai/ha
  GR80 GALAP: 1 g ai/ha

## Nc1c(F)c(-c2ccc(Cl)c(F)c2)nc(C(=O)O)c1Cl [Compound 217]
[2]
  pest or weed control at 35 g/ha: 60 to 74%
  pest or weed control at 70 g/ha: 75 to 84%
  pest or weed control at 140 g/ha: 75 to 84%
  GR50 STEME: 28 g ai/ha
  GR80 STEME: 88 g ai/ha
[3]
  pest or weed control at 35 g/ha: 85 to 94%
  pest or weed control at 70 g/ha: 85 to 94%
  pest or weed control at 140 g/ha: 85 to 94%
  GR50 PHAMI: 11 g ai/ha
  GR80 PHAMI: 30 g ai/ha

## COc1c(N)nc(-c2ccc(Br)c(F)c2)nc1C(=O)O [Compound 113, 6-Amino-2-(4-bromo-3-fluorophenyl)-5-methoxypyrimidine-4-carboxylic acid]
[1]
  pest or weed control at 35 g/ha: 95 to 100%
  pest or weed control at 70 g/ha: 95 to 100%
  GR50 GALAP: 5 g ai/ha
  GR80 GALAP: 12 g ai/ha

## Nc1cc(-c2ccc(Br)c(F)c2F)nc(C(=O)O)c1Cl [Compound 91]
[2]
  pest or weed control at 35 g/ha: 0 to 29%
  pest or weed control at 70 g/ha: 30 to 44%
  pest or weed control at 140 g/ha: 45 to 59%
  GR50 STEME: >140 g ai/ha
  GR80 STEME: >140 g ai/ha
[3]
  pest or weed control at 35 g/ha: 30 to 44%
  pest or weed control at 70 g/ha: 30 to 44%
  pest or weed control at 140 g/ha: 30 to 44%
  GR50 PHAMI: >140 g ai/ha
  GR80 PHAMI: >140 g ai/ha
